How the values were obtained:
[1] = UV absorption of the compound in solution; format: physicochemical
[2] = solution in DMSO/CH2Cl2, at λmax

## CCNS(=O)(=O)CC12CCC(C(=Cc3ccc(C=C4C(=O)C5(CS(=O)(=O)NCC)CCC4C5(C)C)cc3)C1=O)C2(C)C [Example 1, 1,4-phenylenebis(ethyl 3,3′-methylidenecamphor-10,10′-sulphonamide)]
[1]; solution in DMSO/CH2Cl2
  λmax: 342 nm
[1]; [2]
  E1%: 654
  εmax: 40350

## CCCCC(CC)CNS(=O)(=O)CC12CCC(C(=Cc3ccc(C=C4C(=O)C5(CS(=O)(=O)NCC(CC)CCCC)CCC4C5(C)C)cc3)C1=O)C2(C)C (stereo not drawn) [Example 2, 1,4-phenylenebis(2-ethylhexyl 3,3′-methylidenecamphor-10,10′-sulphonamide)]
[1]; solution in CH2Cl2
  λmax: 342 nm
[1]; solution in CH2Cl2, at λmax
  E1%: 522
  εmax: 41 000

## CC12CCC(/C(=C\c3cccc(/C=C4/C(=O)C5(C)CCC4C5(C)C)c3)C1=O)C2(C)C [Example 3, 1,3-phenylenebis(3-methylidenecamphor)]
other
  melting point: 152 °C

## CC12CCC(/C(=C\c3ccc(/C=C4/C(=O)C5(C)CCC4C5(C)C)cc3)C1=O)C2(C)C [Example 5, 1,4-phenylenebis(3-methylidenecamphor)]
other
  melting point: 234 °C

## Cc1c(C)c(C=C2C(=O)C3(C)CCC2C3(C)C)c(C)c(C)c1C=C1C(=O)C2(C)CCC1C2(C)C [Example 6, (2,3,5,6-tetramethyl)-1,4-phenylenebis-(3-methylidenecamphor)]
[1]; solution in CH2Cl3
  λmax: 286 nm
[1]; solution, at λmax
  E1%: 270
  εmax: 12 200

## C[Si](C)(C)CCCOc1ccc(/C=C2\CC/C(=C\c3ccc(OCCC[Si](C)(C)C)cc3)C2=O)cc1 [Example 8, 2,5-bis[4-(3-trimethylsilanylpropyloxy)-benzylidene]cyclopentanone]
other
  melting point: 205 to 207 °C
[1]; solution in CHCl3
  λmax: 391 nm
[1]; solution in CHCl3, at λmax
  E1%: 940
  εmax: 49 100

— patent publication US20030053966A1, “Insoluble organic UV screening agents of aryl vinylene ketone type, and cosmetic use thereof” (priority 2001, published 2003)
